# Experiments:
# [1] = molecular target: T1, human recombinant PARG (AA 389-976) (Homo sapiens, UniProt Q86W56); test: Surface plasmon resonance (SPR) direct binding
# T1 construct: His-tagged human recombinant PARG (AA 389-976) was coupled to a CM5 biosensor chip; made in house; host or cells: E. coli BL21 (DE3), pET28a
# human recombinant PARG = molecular target: T2, human recombinant PARG (Homo sapiens, UniProt Q86W56); test: HTRF assay of PARG enzymatic activity with PARylated-PARP1 substrate; assay type: biochemical; settings: geometric mean, n=14
# T2 construct: Human PARG (amino acids 389-976; Uniprot ID Q86W56-1); 6xHis (N, cleaved yes); TEV cleavage site (N, cleaved yes); made in house; host or cells: PARG: E. coli BL21 (DE3); PARP1 substrate: High Five insect cells (baculovirus)
# T2 sequence (Q86W56 389-976): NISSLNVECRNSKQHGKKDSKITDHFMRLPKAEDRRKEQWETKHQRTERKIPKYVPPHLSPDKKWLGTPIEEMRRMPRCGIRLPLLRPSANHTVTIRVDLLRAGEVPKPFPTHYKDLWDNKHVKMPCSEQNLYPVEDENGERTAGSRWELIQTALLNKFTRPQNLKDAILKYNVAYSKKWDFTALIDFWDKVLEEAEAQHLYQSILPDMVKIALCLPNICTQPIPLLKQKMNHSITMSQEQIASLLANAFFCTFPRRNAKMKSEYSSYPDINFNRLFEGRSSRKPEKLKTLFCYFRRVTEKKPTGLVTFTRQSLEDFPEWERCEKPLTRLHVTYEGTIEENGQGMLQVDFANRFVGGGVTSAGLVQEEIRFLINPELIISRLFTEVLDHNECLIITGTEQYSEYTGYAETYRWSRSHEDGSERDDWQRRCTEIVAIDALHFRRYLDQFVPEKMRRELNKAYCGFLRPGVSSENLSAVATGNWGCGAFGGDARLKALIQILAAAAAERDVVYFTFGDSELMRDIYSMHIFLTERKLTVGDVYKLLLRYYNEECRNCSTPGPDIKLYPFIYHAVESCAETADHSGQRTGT
# 5-HT2A receptor = molecular target: T3, 5-HT2A receptor (Homo sapiens, UniProt P28223); test: Follow-on study, agonist and antagonist IC50; assay type: binding; settings: antagonist
# T3 construct: Eurofins (contract study)
# T3 sequence (P28223 whole entry): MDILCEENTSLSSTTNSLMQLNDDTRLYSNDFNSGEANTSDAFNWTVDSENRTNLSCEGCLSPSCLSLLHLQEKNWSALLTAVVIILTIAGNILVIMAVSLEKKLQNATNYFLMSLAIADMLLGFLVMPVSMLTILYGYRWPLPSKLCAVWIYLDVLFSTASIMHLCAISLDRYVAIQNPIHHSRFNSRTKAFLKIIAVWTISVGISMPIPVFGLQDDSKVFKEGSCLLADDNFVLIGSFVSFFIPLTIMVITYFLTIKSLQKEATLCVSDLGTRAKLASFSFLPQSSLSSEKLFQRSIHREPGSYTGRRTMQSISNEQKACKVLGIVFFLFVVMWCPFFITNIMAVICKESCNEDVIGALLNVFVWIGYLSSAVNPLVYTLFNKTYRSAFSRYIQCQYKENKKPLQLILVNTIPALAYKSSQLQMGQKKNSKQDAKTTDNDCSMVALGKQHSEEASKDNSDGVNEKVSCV
# [2] = system: HBCx-22 breast cancer patient-derived xenograft; test: HBCx-22 breast cancer PDX model; assay type: in vivo, Hsd: Athymic Nude-Foxn1nu mice; settings: 75 or 100 mg/kg BID, 42 days
# Procedure: (§1) The PDX models were established by subcutaneous inoculation of HBCx-22 or HBCx-34 cells into Hsd: Athymic Nude-Foxn1nu mice. Breast tumor-bearing mice received estrogen diluted in drinking water (β-oestradiol, 8.5 mg/L) from the date of tumor inoculation until the end of the study to promote optimal growth of the ER^+ cell line. Groups of 10 animals each were established by random assignment. Tumor volumes and body weights were measured twice weekly. […] Statistical analysis of end-of-study tumor volumes was performed using the Kruskal-Wallis test with Dunn's multiple comparisons test (HBCx-34) or Brown-Forsythe test with Dunnett's T3 multiple comparisons test (HBCx-22).
# (§2) Compound 1 was administered to mice orally twice daily (BID) for 42 days at a dose of 75 or 100 mg/kg based on body weight. […] Compound 1 was administered to mice orally BID for 35 days at doses of 75 or 100 mg/kg based on body weight.
# [3] = system: HBCx-34 breast cancer patient-derived xenograft; test: HBCx-34 breast cancer PDX model; assay type: in vivo, Hsd: Athymic Nude-Foxn1nu mice; settings: 75 or 100 mg/kg BID, at day 15, transient
# Procedure: as §1, §2
# [4] = system: RMUG-S ovarian cancer xenograft; test: RMUG-S ovarian cancer CDX model; assay type: in vivo, NOD SCID or NOG mice
# Procedure: The CDX model was established by subcutaneous inoculation of 1×10^7 viable RMUG-S cells into the right flank of NOD SCID or NOG mice. […] Compound 1 was administered to mice orally either once daily (QD) or twice daily (BID) for 32-50 days. Compound 1 was administered to mice continuously throughout the treatment period (7/7 days) or intermittently from Monday-Friday (5/7 days), or Monday-Thursday (4/7 days) during the treatment period.
# For all studies, tumor volumes and body weights were measured twice weekly. […] Statistical analysis of end-of-study mean tumor volumes for the T025OV model was performed using an unpaired t-test with Welch's correction.
# HCC1806 cells = test: 6-day growth assay, Compound 1 in combination with exatecan; assay type: cell-based; settings: Homo sapiens
# Procedure: (§3) The activity of Compound 1 in combination with exatecan was evaluated in the HCC1954, HCC1806, and GP2D cancer cell lines in a 6-day growth assay. HCC1954 (Cat #CRL-2338) and HCC1806 (Cat #CRL-2335) cells were obtained from American Type Culture Collection (ATCC) and maintained in ATCC modified RPMI (Cat #30-2001)+10% FBS (Cat #A3160502)+1% penicillin/streptomycin (Cat #15140-122) in a humidified incubator at 37° C., 5% CO2. GP2D cells were obtained from ECACC (Cat #95090714-1VL) and maintained in DMEM+GlutaMAX (Cat #10566-016)+10% FBS (Cat #A3160502)+1% penicillin/streptomycin (Cat #15140-122). Cells were seeded at 2,500 cells/well (HCC1954 and GP2D) or 2,000 cells/well (HCC1806) in 100 μL of growth medium in a 96-well plate (Corning costar Cat #3603) and allowed to adhere overnight at 37° C. with 5% CO2. The next day, serial dilutions of Compound 1 and exatecan were prepared and added to the corresponding wells of a 96-well plate. A solution of 0.1% DMSO in medium was used as the negative control. Cells were incubated with compound for 6 days at 37° C. with 5% CO2, then fixed, stained, and counted as described in Example 3. Concentration response-curves and IC50 values were generated by non-linear regression analysis using a 4-parameter variable slope fit in GraphPad Prism 10 software. Potential synergy between Compound 1 and exatecan was assessed using Zero interaction potency (ZIP), Highest Single Agent (HSA), Bliss, and Loewe synergy models to find the most synergistic area score, where scores >10 indicate that the interaction between the two drugs is likely to be synergistic (Ianevski et al. 2020).
# HCC1954 cells = test: as above; assay type: cell-based; settings: Homo sapiens
# Procedure: as §3
# GP2D cells = test: as above; assay type: cell-based, human
# Procedure: as §3
# T1 sequence (Q86W56 389-976): as the sequence (Q86W56 389-976) above
compound,measurement,setting,value
"[2H]C([2H])(c1cnn(C)c1)N1C(=O)c2cc(S(=O)(=O)NC3(C)CC3)ccc2N2C1=NC[C@H]2C [Compound 1, (R)-1-methyl-4-((1-methyl-1H-pyrazol-4-yl)methyl-d2)-N-(1-methylcyclopropyl)-5-oxo-1,2,4,5-tetrahydroimidazo[1,2-a]quinazoline-7-sulfonamide]",Kd,"[1]; SPR kinetic KD, 1:1 binding, 25° C., mean n=2",0.0011 µM
same,Rmax (Relative Units),[1]; relative amount of PARG bound by Compound 1,15.9 Relative Units
same,Theoretical Rmax,[1]; total amount of PARG immobilized on the biosensor chip,19.8
same,IC50,human recombinant PARG,0.085 µM
same,IC50,5-HT2A receptor,21 µM
same,Kb,5-HT2A receptor; read-out: dissociation constant (KB),4.2 µM
same,tolerability (body weight),[2],generally well tolerated
same,maximum decrease in body weight,[3],approximately 11%
same,mean body weight gain over the treatment period,"[4]; first study, highest dose group",5%
same,tolerability (body weight),[4]; second study,generally well tolerated
same,IC50,HCC1806 cells; exatecan 0.001 nM,1.9 µM
same,IC50,HCC1806 cells; exatecan 0.01 nM,1.5 µM
same,IC50,HCC1806 cells; exatecan 0.03 nM,1.2 µM
same,IC50,HCC1806 cells; exatecan 0.1 nM,0.3 µM
same,IC50,HCC1954 cells; exatecan 0.001 nM,6.9 µM
same,IC50,HCC1954 cells; exatecan 0.01 nM,7.2 µM
same,IC50,HCC1954 cells; exatecan 0.03 nM,6.6 µM
same,IC50,HCC1954 cells; exatecan 0.1 nM,5.2 µM
same,IC50,HCC1954 cells; exatecan 0.3 nM,0.9 µM
same,IC50,"GP2D cells; Homo sapiens, GP2d, exatecan 0.03 nM",6 µM
same,IC50,"GP2D cells; Homo sapiens, GP2d, exatecan 0.1 nM",5.1 µM
same,IC50,"GP2D cells; Homo sapiens, GP2d, exatecan 0.3 nM",3.1 µM
same,IC50,"GP2D cells; Homo sapiens, GP2d, exatecan 1 nM",3.1 µM
same,IC50,"GP2D cells; Homo sapiens, GP2d, exatecan 3 nM",8.1 µM
same,IC50,"GP2D cells; Homo sapiens, GP2d, exatecan 30 nM",5.4 µM
same,IC50,GP2D cells; exatecan 0.03 nM,6.3 µM
same,IC50,GP2D cells; exatecan 1 nM,3.3 µM
